The text below walks through data of patent US5411984A, “Water soluble analogs and prodrugs of taxol” (Virginia Tech Intellectual Properties, Inc., priority 1992, dated 1995).

One data set concerns M109 lung carcinoma. Put plainly: In vivo activity against M109 lung carcinoma implanted intraperitoneally (mice M109 model), median survival. Also on record: species or system Balb/o x DBA/2 F1 hybrid mice. As to the method: Balb/o x DBA/2 F1 hybrid mice were implanted intraperitoneally, as described by William Rose in "Evaluation of Madison 109 Lung Carcinoma as a Model for Screening Antitumor Drugs, "Cancer Treatment Reports, 65 No. 3-4 (1981), with 0.5 mL of a 2% (w/v) brei of M109 lung carcinoma (the mice M109 model).
Mice were treated with a compound under study by receiving intraperitoneal injections of various doses on either Day 1, 5, and 9 post-tumor implant or Days 5 and 8 post-implant. Mice were followed daily for survival until approximately 75-90 days post-tumor implant. One group of mice per experiment remained untreated and served as the control group.
Median survival times of compound-treated (T) mice were compared to the median survival time of the control (C) mice. The ratio of the two values for each compound-treated group of mice was multiplied by 100 and expressed as a percentage (i.e.% T/C) in Table 2 for certain representative compounds.

The conditions of data set [1]: cited from earlier work.
A further data set concerns B16 melanoma cells. Conditions: compared with taxol; cited from earlier work.
For data set [2] the following is noted: cited from earlier work. This is another data set of the same source.
The conditions of data set [3]: cited from earlier work. The source holds these as a separate data set.
Data set [4] in a line: Stability in mildly basic aqueous solution. It counts as physicochemical.
The nature of data set [5]: Stability in pH 5 buffer / mildly acidic aqueous solution (HPLC or TLC, onset of cloudiness). Conditions: room temperature. The class given is physicochemical. The procedure:
**Stabilities were determined in pH 5 buffer solution by one of the two
methods indicated below.
(a) 9.5 mg of sample was dissolved in 0.2 ml of EtOH and 0.2 ml of pH 5
buffer solution and let stand at room temperature. The progress of
decomposition was checked by HPLC or TLC and observation of the onset of
(b) 0.5 mg of sample was dissolved in 0.1 ml of EtOH and 0.9 ml of pH 5
buffer solution, the other conditions were the same as in (a) above. All
samples were stable under these conditions for at least 24 hours. No
hydrolysis was detectable by HPLC or TLC during this time period.

A short description of data set [6]: Relative solubility by the 1-octanol and water partition method (UV absorption at 228 nm), taxol = 1. The procedure:
In separate experiments, taxol derivative 4 and 2'-succinyl taxol (R=NaO2 CCH2 CH2 CO2) were dissolved in a mildly basic aqueous solution.
*Solubilities were determined by using the 1octanol and water partition
method.Sample concentrations in water were determined by UV absorptions a […]

The test system of the next data set is tubulin. Conditions: cited from earlier work.
The mark [7] stands for this setting: method (b): 0.5 mg in 0.1 ml EtOH and 0.9 ml pH 5 buffer.
Setting [8] is: method (a): 9.5 mg in 0.2 ml EtOH and 0.2 ml pH 5 buffer.

Counter-ions that a name gives are not always drawn.

One may read the T/C as the result in the treated group divided by that in the control group, in per cent.

“2'-(4-benzyloxocarbonylbensoyl -7-(4-carboxybensoyl)taxol [Compound 17]”: the T/C with M109 lung carcinoma (Q03Dx2;5, ip/ip, dose 13) is 97%; in the data set with M109 lung carcinoma (Q03Dx2;5, ip/ip, dose 26), 100%; with M109 lung carcinoma (Q03Dx2;5, ip/ip, dose 52), 109%.

Turning to `CC(=O)O[C@H]1C(=O)[C@]2(C)[C@@H](OC(C)=O)C[C@H]3OC[C@@]3(OC(C)=O)[C@H]2[C@H](OC(=O)c2ccccc2)[C@]2(O)C[C@H](OC(=O)[C@H](OC(C)=O)[C@@H](NC(=O)c3ccccc3)c3ccccc3)C(C)=C1C2(C)C` [2',7-diacetyltaxol], the “hydrolysis of acyl substituents under in vivo conditions” value in data set [1] was “readily hydrolyzed”.

Take `CC(=O)O[C@H]1C(=O)[C@@]2(C)[C@H]([C@H](OC(=O)c3ccccc3)[C@]3(O)C[C@H](OC(=O)[C@H](OC(=O)CN(C)C)[C@@H](NC(=O)c4ccccc4)c4ccccc4)C(C)=C1C3(C)C)[C@]1(OC(C)=O)CO[C@@H]1C[C@@H]2O` [2'-(N,N-dimethylglycyl) taxol]: the “inhibition of proliferation of B16 melanoma cells relative to taxol” value with B16 melanoma cells is on record as “to an extent similar to that of taxol”.

As for `CC(=O)O[C@H]1C(=O)[C@@]2(C)[C@H]([C@H](OC(=O)c3ccccc3)[C@]3(O)C[C@H](OC(=O)[C@H](OC(=O)CCC(=O)NCCCS(=O)(=O)O)[C@@H](NC(=O)c4ccccc4)c4ccccc4)C(C)=C1C3(C)C)[C@]1(OC(C)=O)CO[C@@H]1C[C@@H]2O` [2'-([4-((3-sulfopropyl)amino-1,4-dioxobutyl]oxy)taxolsodium salt], the “antineoplastic activity in mice” value in data set [2] is given as “active as antineoplastic agents in mice”. In addition, the “aqueous solubility” value in [3] is on record as “improved water-solubility as compared with taxol”.

In the case of `CC(=O)O[C@H]1C(=O)[C@@]2(C)[C@H]([C@H](OC(=O)c3ccccc3)[C@]3(O)C[C@H](OC(=O)[C@H](OC(=O)CCN(C)C)[C@@H](NC(=O)c4ccccc4)c4ccccc4)C(C)=C1C3(C)C)[C@]1(OC(C)=O)CO[C@@H]1C[C@@H]2O` [2'-[3-(N,N-dimethylamino)propionyl]taxol], the “inhibition of proliferation of B16 melanoma cells relative to taxol” value in the data set with B16 melanoma cells is listed as “to an extent similar to that of taxol”.

With `CC(=O)O[C@H]1C(=O)[C@@]2(C)[C@H]([C@H](OC(=O)c3ccccc3)[C@]3(O)C[C@H](OC(=O)[C@H](OC(=O)CCC(=O)O)[C@@H](NC(=O)c4ccccc4)c4ccccc4)C(C)=C1C3(C)C)[C@]1(OC(C)=O)CO[C@@H]1C[C@@H]2O` [2'-succinyl taxol, 2'-succinyl taxol (R=NaO2 CCH2 CH2 CO2), reference compound], the “time until solution turned cloudy” value in data set [4] is “less than 24 hours”. In addition, the degraded at 24 h in [4] (read-out: decomposed) is about 50%.

With `CC(=O)O[C@H]1C(=O)[C@@]2(C)[C@H]([C@H](OC(=O)c3ccccc3)[C@]3(O)C[C@H](OC(=O)[C@H](OC(=O)CCC(=O)NCCS(=O)(=O)O)[C@@H](NC(=O)c4ccccc4)c4ccccc4)C(C)=C1C3(C)C)[C@]1(OC(C)=O)CO[C@@H]1C[C@@H]2O` [--O2 CCH2 CH2 CONHCH2 --CH2 SO3 Na, 2'-([4-((2-sulfoethyl)amino)-1,4-dioxobutyl]oxy)taxol sodium salt], the “antineoplastic activity in mice” value in data set [2] was “active as antineoplastic agents in mice”. Also, the “Stabilities at pH 5” value in data set [5] (setting [7]) is over 24 h. In [3], the “aqueous solubility” value is “improved water-solubility as compared with taxol”.

On to `CC(=O)O[C@H]1C(=O)[C@@]2(C)[C@H]([C@H](OC(=O)c3ccccc3)[C@]3(O)C[C@H](OC(=O)[C@H](OC(=O)CCS(=O)(=O)O)[C@@H](NC(=O)c4ccccc4)c4ccccc4)C(C)=C1C3(C)C)[C@]1(OC(C)=O)CO[C@@H]1C[C@@H]2O` [--O2 CCH2 CH2 SO3 Na, 2'-[(3-sulfo-1-oxopropyl)oxy]taxol sodium salt], for which the “antineoplastic activity in mice” value in data set [2] is listed as “active as antineoplastic agents in mice”. The “Stabilities at pH 5” value in data set [5] (setting [7]) is reported as over 24 h. Moreover, in [3], the “aqueous solubility” value is given as “improved water-solubility as compared with taxol”.

Turning to `CC(=O)O[C@H]1C(=O)[C@@]2(C)[C@H]([C@H](OC(=O)c3ccccc3)[C@]3(O)C[C@H](OC(=O)[C@H](OC(=O)c4ccccc4C(=O)O)[C@@H](NC(=O)c4ccccc4)c4ccccc4)C(C)=C1C3(C)C)[C@]1(OC(C)=O)CO[C@@H]1C[C@@H]2O` [Compound 4, Taxol 2'-(sodium 1,2-benzenedicarboxylate)], the appearance of solution result in data set [4] was “remained clear”. For the same compound, the “extent of decomposition” value in data set [4] is listed as “remained substantially intact”. For the same compound, in data set [6], the “Relative Solubility (p')” value was found to be 3. Further, the “Stabilities at pH 5” value in data set [5] (setting [8]) was over 24 h. Also, the T/C in the data set with M109 lung carcinoma (Q03Dx2;5, ip/ip, dose 15) was 106%; with M109 lung carcinoma (Q03Dx2;5, ip/ip, dose 30), 135%; with M109 lung carcinoma (Q03Dx2;5, ip/ip, dose 60), 141%.

Take `CC(=O)O[C@H]1C(=O)[C@@]2(C)[C@H]([C@H](OC(=O)c3ccccc3)[C@]3(O)C[C@H](OC(=O)[C@H](OC(=O)c4ccc(C(=O)O)cc4)[C@@H](NC(=O)c4ccccc4)c4ccccc4)C(C)=C1C3(C)C)[C@]1(OC(C)=O)CO[C@@H]1C[C@@H]2O` [Compound 7, Taxol 2'-(sodium 1,4-benzenedioarboxylate)]: the “solubility relative to ortho benzoyl carboxylate derivative 4” value in [6] (compared with 4) is given as “twice as soluble”. The “Stabilities at pH 5” value in data set [5] (setting [8]) is reported as over 24 h. Besides, the T/C with M109 lung carcinoma (Q03Dx2;5, ip/ip, dose 15) is listed as 112%; in the data set with M109 lung carcinoma (Q03Dx2;5, ip/ip, dose 30) it was 141%; in the data set on M109 lung carcinoma (Q03Dx2;5, ip/ip, dose 60), 141%. Also, the “in vivo biological activity relative to derivative 4” value with M109 lung carcinoma (mice M109 model) is recorded as “superior in vivo biological activity”.

As to `CC(=O)O[C@H]1C(=O)[C@@]2(C)[C@H]([C@H](OC(=O)c3ccccc3)[C@]3(O)C[C@H](OC(=O)[C@H](OC(=O)c4cc(C(=O)O)cc(C(=O)O)c4)[C@@H](NC(=O)c4ccccc4)c4ccccc4)C(C)=C1C3(C)C)[C@]1(OC(C)=O)CO[C@@H]1C[C@@H]2O` [Compound 8c, Taxol 2'-(disodium 1,3,5-benzenetricarboxylate)], in data set [5] (setting [7]), the “Stabilities at pH 5” value is over 24 h.

Regarding `CC(=O)O[C@H]1C(=O)[C@@]2(C)[C@H]([C@H](OC(=O)c3ccccc3)[C@]3(O)C[C@H](OC(=O)[C@H](OC(=O)c4ccccc4S(=O)(=O)O)[C@@H](NC(=O)c4ccccc4)c4ccccc4)C(C)=C1C3(C)C)[C@]1(OC(C)=O)CO[C@@H]1C[C@@H]2O` [Compound 11, 2'-(2-Sulfobenzoyl) taxol, sodium salt], the “Relative Solubility (p')” value in data set [6] is 96. In data set [5] (setting [7]), the “Stabilities at pH 5” value is reported as over 24 h.

`CC(=O)O[C@H]1C(=O)[C@@]2(C)[C@H]([C@H](OC(=O)c3ccccc3)[C@]3(O)C[C@H](OC(=O)[C@H](OC(=O)c4ccc(S(=O)(=O)O)cc4)[C@@H](NC(=O)c4ccccc4)c4ccccc4)C(C)=C1C3(C)C)[C@]1(OC(C)=O)CO[C@@H]1C[C@@H]2O` [Compound 12, 2'-(4-sulfobenzoyl) taxol, sodium salt]: the “Relative Solubility (p')” value in data set [6] worked out at 166. The “Stabilities at pH 5” value in [5] (setting [7]) is over 24 h.

`CCN(CC)CCNC(=O)c1ccc(C(=O)O[C@@H](C(=O)O[C@H]2C[C@@]3(O)[C@@H](OC(=O)c4ccccc4)[C@@H]4[C@]5(OC(C)=O)CO[C@@H]5C[C@H](O)[C@@]4(C)C(=O)[C@H](OC(C)=O)C(=C2C)C3(C)C)[C@@H](NC(=O)c2ccccc2)c2ccccc2)cc1` [Compound 13b, 2'-[4-([2-(N,N-diethylamino)ethyl]aminocarbonyl)benzoyl]taxol, hydrochloride]: the “Stabilities at pH 5” value in [5] (setting [8]) was over 24 h. Besides, the T/C in the data set with M109 lung carcinoma (Z03Dx2;5, ip/ip, dose 50) came out at 118%; in the data set with M109 lung carcinoma (Z03Dx2;5, ip/ip, dose 100) it was 118%; in the data set on M109 lung carcinoma (Z03Dx2;5, ip/ip, dose 200), 124%.

Turning to `CC(=O)O[C@H]1C(=O)[C@]2(C)[C@@H](OC(=O)c3ccccc3C(=O)O)C[C@H]3OC[C@@]3(OC(C)=O)[C@H]2[C@H](OC(=O)c2ccccc2)[C@]2(O)C[C@H](OC(=O)[C@H](OC(=O)c3ccccc3C(=O)O)[C@@H](NC(=O)c3ccccc3)c3ccccc3)C(C)=C1C2(C)C` [Compound 15, Taxol 2',7-di(sodium 1,2-benzenedicarboxylate)], the T/C in the data set on M109 lung carcinoma (Z03Dx2;5, site/route not given, dose 15) came to 100%; with M109 lung carcinoma (Z03Dx2;5, site/route not given, dose 30), 103%; with M109 lung carcinoma (Z03Dx2;5, site/route not given, dose 60) it was 106%.

`CC[C@]1(O)C[C@@H]2CN(CCc3c([nH]c4ccccc34)[C@@](C(=O)OC)(c3cc4c(cc3OC)N(C)[C@H]3[C@@](O)(C(=O)OC)[C@H](OC(C)=O)[C@]5(CC)C=CCN6CC[C@]43[C@@H]65)C2)C1` [vinblastine]: the “effect on microtubule / tubulin polymer formation” value in the data set on tubulin is “prevent microtubule formation”.
